Earlier results in patent publication US20230172904A1, “COMBINATION OF AN ANTIALLERGIC AGENT WITH MUSCARINIC ANTAGONIST AND/OR DOPAMINERGIC AGONIST FOR USE IN PREVENTING/STOPPING OF AXIAL MYOPIA IN HUMAN” (priority 2016, published 2023).

Key:
axial myopia [1] = tested on: axial myopia
axial myopia [2] = settings: one drop of 1% Atropine collyrium at bedtime, chinese children, placebo controlled

## CN1[C@@H]2CC[C@H]1C[C@@H](OC(=O)C(CO)c1ccccc1)C2 (stereo partly drawn) [Atropine]
Axial myopia [1]; dose reduced to 0.1%, 0.05% and 0.01%, children
  effect on myopia at reduced doses: dose dependent effect of atropine that is still acceptable at the lower concentration
Axial myopia [1]; pediatric population, allergic response of the conjunctiva
  subjects who developed ocular redness and itching: around 5%
Axial myopia [2]
  subjects in whom the development of axial myopia was halted (stopping the elongation of the bulb): 90%
